Data taken from patent US12227488B2, “Small molecule degraders of Helios and methods of use” (DANA-FARBER CANCER INSTITUTE, INC., priority 2018, dated 2025).

Columns and labels:
[1] = target: T1, CRBN and Helios (IKZF2) (Homo sapiens, UniProt Q96SW2+Q9UKS7); assay: TR-FRET dimerization assay (CRBN-IKZF2 ternary complex formation); type: binding; conditions: n=1
T1 construct: His (N); Strep (N)
Procedure: A focused library of imide analogs was synthesized and assessed for their ability to induce dimerization between CRBN and Helios in a time-resolved fluorescence energy transfer (TR-FRET) assay (FIG. 1A).
Prior to TR-FRET measurements being conducted, the reactions were incubated for 15 min at rt. […] The TR-FRET signal of each data point was extracted by calculating the 520/490 nm ratios. Data from single measurements (n=1), each calculated as an average of at least three technical replicates per well per experiment are presented in Table 1.
BODIPY-labeled CRBN in complex with Damage Specific DNA Binding Protein 1 (DDB1) harboring an internal deletion of the flexible BPB propeller (DDB1AB-CRBN) and in vitro biotinylated IKZF2 were treated with increasing concentrations of the indicated compounds in the presence of tracer amounts of Terbium-Streptavidin (Tb-SA). Compound-induced recruitment of IKZF2 to CRBN was quantified following the 520/490 TR-FRET ratio using a PHERAstar® plate reader (BMG) utilizing two synchronized PMTs to reduce background.

[2] = tested on: IKZF2; assay: Cellular degradation assay, eGFP-IKZF2Δ fusion with mCherry reporter in Flp-In 293 cells; type: cell-based; conditions: for IKZF2 GFP/RFP Relative Abundance: 5 h incubation, n=1
Procedure: (§1) IKZF1Δ, IKZF2Δ, GSPT1 and SALL4 ZnF1-2 were subcloned into mammalian pcDNA5/FRT Vector (Ampicillin and Hygromycin B resistant) modified to contain MCS-eGFP-P2A-mCherry. […] Following 2-3 passage cycle, FACS (FACSAria™ II, BD) was used to enrich for cells expressing eGFP and mCherry. Cells stably expressing the IKZF1Δ, IKZF2Δ, GSPT1 or SALL4 Znf1-2 GFP fusions with mCherry reporter were seeded at 30-50% confluency in 384-well plates with 50 μL FluoroBrite™ DMEM media (Thermo Fisher Scientific, A18967) containing 10% FBS per well a day before compound treatment. Compound titrations were dispensed using a D300e Digital Dispenser (HP), normalized to 0.5% DMSO, and incubated with cells for 5 hours.
(§2) The resulting images were analyzed using CellProfiler™. A series of image analysis steps (‘image analysis pipeline’) was constructed. First, the red and green channels were aligned and cropped to target the middle of each well (to avoid analysis of heavily clumped cells at the edges), and a background illumination function was calculated for both red and green channels of each well individually and subtracted to correct for illumination variations across the 384-well plate from various sources of error. An additional step was then applied to the green channel to suppress the analysis of large auto fluorescent artifacts and enhance the analysis of cell specific fluorescence by way of selecting for objects under a given size, 30 A.U., and with a given shape, speckles. mCherry-positive cells were then identified in the red channel filtering for objects between 8-60 pixels in diameter and using intensity to distinguish between clumped objects. The green channel was then segmented into GFP positive and negative areas and objects were labeled as GFP positive if at least 40% of it overlapped with a GFP positive area. The fraction of GFP-positive cells/mCherry-positive cells in each well was then calculated, and the green and red images were rescaled for visualization.
(§3) The degradation assay was performed as described above. […] Degradation was measured after 5 h of compound treatment and the concentrations that lead to half degradation at 5 h (DC50,5 h) were calculated using the nonlinear fit variable slope model (GraphPad Software).

[3] = target: T2, IKZF1 (Homo sapiens, UniProt Q13422); assay: Cellular degradation assay, eGFP-IKZF1Δ fusion with mCherry reporter in Flp-In 293 cells; type: cell-based; conditions: for IKZF1 GFP/RFP Relative Abundance: 5 h incubation, n=1
T2 construct: expressed in transfected cells; host or cells: Flp-In 293
T2 sequence (Q13422 83-213 isoform Q13422-7 limits assumed): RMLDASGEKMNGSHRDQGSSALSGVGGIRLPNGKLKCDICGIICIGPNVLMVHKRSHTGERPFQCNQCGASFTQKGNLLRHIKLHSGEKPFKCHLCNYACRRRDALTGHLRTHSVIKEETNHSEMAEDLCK
T2 sequence (Q96SW2 whole entry partner, the tested form may be a part): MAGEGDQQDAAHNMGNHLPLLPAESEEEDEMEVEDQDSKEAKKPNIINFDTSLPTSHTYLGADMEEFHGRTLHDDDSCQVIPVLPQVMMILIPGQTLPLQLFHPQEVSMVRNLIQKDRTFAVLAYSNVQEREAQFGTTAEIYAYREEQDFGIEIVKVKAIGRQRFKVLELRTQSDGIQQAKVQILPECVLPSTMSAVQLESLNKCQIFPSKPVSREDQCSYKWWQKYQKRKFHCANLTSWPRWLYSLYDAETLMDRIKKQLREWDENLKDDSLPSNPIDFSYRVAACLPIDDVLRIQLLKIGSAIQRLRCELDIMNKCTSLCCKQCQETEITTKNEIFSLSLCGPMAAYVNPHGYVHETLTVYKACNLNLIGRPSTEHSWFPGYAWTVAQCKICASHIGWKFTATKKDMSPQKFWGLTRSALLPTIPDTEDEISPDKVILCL
T2 sequence (Q16531 2-1140 partner limits assumed): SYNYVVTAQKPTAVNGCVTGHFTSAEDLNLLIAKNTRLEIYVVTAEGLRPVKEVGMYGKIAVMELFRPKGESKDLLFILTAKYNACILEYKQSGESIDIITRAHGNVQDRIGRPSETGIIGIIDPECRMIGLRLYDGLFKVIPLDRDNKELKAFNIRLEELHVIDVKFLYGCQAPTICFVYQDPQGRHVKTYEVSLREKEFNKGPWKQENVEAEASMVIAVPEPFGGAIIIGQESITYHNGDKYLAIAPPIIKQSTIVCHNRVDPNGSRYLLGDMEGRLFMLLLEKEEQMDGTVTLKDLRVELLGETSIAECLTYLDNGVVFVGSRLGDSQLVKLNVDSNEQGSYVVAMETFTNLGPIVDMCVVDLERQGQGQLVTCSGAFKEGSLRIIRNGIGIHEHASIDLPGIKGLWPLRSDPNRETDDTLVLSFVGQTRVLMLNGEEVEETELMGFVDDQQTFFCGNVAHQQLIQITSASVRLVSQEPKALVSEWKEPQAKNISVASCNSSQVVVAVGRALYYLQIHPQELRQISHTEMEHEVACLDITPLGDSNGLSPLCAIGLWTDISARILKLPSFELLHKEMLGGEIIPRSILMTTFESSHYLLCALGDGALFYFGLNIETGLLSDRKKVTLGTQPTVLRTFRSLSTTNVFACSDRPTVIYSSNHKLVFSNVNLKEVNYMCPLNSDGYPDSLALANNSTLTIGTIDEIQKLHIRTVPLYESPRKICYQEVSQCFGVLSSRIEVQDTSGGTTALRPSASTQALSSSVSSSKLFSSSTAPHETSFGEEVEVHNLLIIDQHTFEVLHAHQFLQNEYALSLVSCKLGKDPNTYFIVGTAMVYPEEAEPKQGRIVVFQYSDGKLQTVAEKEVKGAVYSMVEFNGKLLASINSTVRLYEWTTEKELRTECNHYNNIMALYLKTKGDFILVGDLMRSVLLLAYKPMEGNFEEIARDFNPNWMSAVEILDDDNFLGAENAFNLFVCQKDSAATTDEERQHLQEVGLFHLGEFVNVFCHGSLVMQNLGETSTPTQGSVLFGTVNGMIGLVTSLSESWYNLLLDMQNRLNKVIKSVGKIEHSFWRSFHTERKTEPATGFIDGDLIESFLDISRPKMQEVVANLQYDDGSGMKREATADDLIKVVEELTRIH
Procedure: as §1, §2, §3

[4] = compound concentration 6.6667E−05
[5] = compound concentration 6.6667E−06
[6] = compound concentration 6.6667E−07 (667 nM)
[7] = compound concentration 2.00E−05
[8] = compound concentration 2.00E−06
[9] = compound concentration 2.00E−07
[10] = half degradation at 5 h (DC50,5 h), triplicate, 11 point dose response

T1 sequence (Q96SW2 whole entry): as the sequence (Q96SW2 whole entry partner, the tested form may be a part) above
T1 sequence (Q9UKS7 whole entry): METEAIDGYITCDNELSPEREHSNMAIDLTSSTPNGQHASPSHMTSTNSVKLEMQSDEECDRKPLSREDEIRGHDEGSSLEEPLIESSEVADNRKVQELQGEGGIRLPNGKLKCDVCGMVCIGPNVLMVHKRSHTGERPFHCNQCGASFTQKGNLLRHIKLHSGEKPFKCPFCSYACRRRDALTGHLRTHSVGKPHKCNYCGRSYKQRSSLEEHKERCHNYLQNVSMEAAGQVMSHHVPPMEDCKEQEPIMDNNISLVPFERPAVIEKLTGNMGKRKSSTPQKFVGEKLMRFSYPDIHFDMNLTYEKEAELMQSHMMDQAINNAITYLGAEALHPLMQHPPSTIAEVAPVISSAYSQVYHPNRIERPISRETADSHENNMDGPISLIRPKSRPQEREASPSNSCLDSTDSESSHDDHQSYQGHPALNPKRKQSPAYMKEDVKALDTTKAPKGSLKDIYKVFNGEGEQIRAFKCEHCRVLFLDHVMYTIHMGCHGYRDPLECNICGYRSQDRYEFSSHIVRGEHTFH

SMILES | TR-FRET-IKZF2 (Normalized to CC-885) [1, 4] | TR-FRET-IKZF2 (Normalized to CC-885) [1, 5] | TR-FRET-IKZF2 (Normalized to CC-885) [1, 6] | IKZF2 GFP/RFP Relative Abundance [2, 7] | IKZF2 GFP/RFP Relative Abundance [2, 8] | IKZF2 GFP/RFP Relative Abundance [2, 9] | IKZF1 GFP/RFP Relative Abundance [3, 7] | IKZF1 GFP/RFP Relative Abundance [3, 8] | IKZF1 GFP/RFP Relative Abundance [3, 9] | DC50 [2, 10] [nM] | potency of IKZF1 degradation, in words ([3]; Table 3 summary) | DC50 [3, 10] [nM]
Cc1ccc(CNC(=O)CCc2cccc(NC3=CC(=O)N(C4CCC(=O)NC4=O)C3=O)c2)cc1Cl (stereo not drawn) [Compound 121, N-(3-chloro-4-methylbenzyl)-3-(3-((1-(2,6-dioxopiperidin-3-yl)-2,5-dioxo-2,5-dihydro-1H-pyrrol-3-yl)amino)phenyl)propanamide] | 1.521 | 1.376 | 1.357 | 0.071 | 0.087 | 0.051 | 0.125 | 0.093 | 0.120 | – | – | –
Cc1ccc(NC(=O)Nc2cccc3c(NC4=CC(=O)N(C5CCC(=O)NC5=O)C4=O)cccc23)cc1Cl (stereo not drawn) [Compound 124, 1-(3-chloro-4-methylphenyl)-3-(5-((1-(2,6-dioxopiperidin-3-yl)-2,5-dioxo-2,5-dihydro-1H-pyrrol-3-yl)amino)naphthalen-1-yl)urea] | 0.159 | 0.130 | 0.077 | 0.829 | 1.015 | 0.985 | 0.689 | 0.978 | 1.005 | – | – | –
O=C1CCC(N2C(=O)C=C(Nc3cccc(CNC(=O)NCc4ccccc4)c3)C2=O)C(=O)N1 (stereo not drawn) [Compound 81, 1-benzyl-3-(3-((1-(2,6-dioxopiperidin-3-yl)-2,5-dioxo-2,5-dihydro-1H-pyrrol-3-yl)amino)benzyl)urea] | 0.703 | 0.585 | 0.519 | 0.587 | 0.660 | 0.737 | 0.063 | 0.056 | 0.094 | – | – | –
Cc1ccc(CNC(=O)Cc2cccc(NC3=CC(=O)N(C4CCC(=O)NC4=O)C3=O)c2)cc1Cl (stereo not drawn) [Compound 123, N-(3-chloro-4-methylbenzyl)-2-(3-((1-(2,6-dioxopiperidin-3-yl)-2,5-dioxo-2,5-dihydro-1H-pyrrol-3-yl)amino)phenyl)acetamide] | 1.234 | 1.087 | 0.960 | 0.065 | 0.093 | 0.078 | 0.083 | 0.057 | 0.092 | – | – | –
Cc1ccc(NC(=O)N2Cc3ccc(NC4=CC(=O)N(C5CCC(=O)NC5=O)C4=O)cc3C2)cc1Cl (stereo not drawn) [Compound 107, N-(3-chloro-4-methylphenyl)-5-((1-(2,6-dioxopiperidin-3-yl)-2,5-dioxo-2,5-dihydro-1H-pyrrol-3-yl)amino)isoindoline-2-carboxamide] | 0.086 | 0.066 | 0.066 | 0.225 | 1.034 | 1.048 | 0.245 | 1.043 | 0.997 | – | – | –
O=C1CCC(N2C(=O)C=C(Nc3cccc(CNC(=O)Nc4ccccc4)c3)C2=O)C(=O)N1 (stereo not drawn) [Compound 119, 1-(3-((1-(2,6-dioxopiperidin-3-yl)-2,5-dioxo-2,5-dihydro-1H-pyrrol-3-yl)amino)benzyl)-3-phenylurea] | 0.817 | 0.671 | 0.629 | 0.392 | 0.516 | 0.544 | 0.055 | 0.079 | 0.101 | – | – | –
Cc1ccc(NC(=O)CNc2cccc(NC3=CC(=O)N(C4CCC(=O)NC4=O)C3=O)c2)cc1Cl (stereo not drawn) [Compound 78, N-(3-chloro-4-methylphenyl)-2-((3-((1-(2,6-dioxopiperidin-3-yl)-2,5-dioxo-2,5-dihydro-1H-pyrrol-3-yl)amino)phenyl)amino)acetamide] | – | – | – | – | – | – | – | – | – | 2.2 | most potent against IKZF1 | 1.9
Cc1ccc(NC(=O)NCCc2cccc(NC3=CC(=O)N(C4CCC(=O)NC4=O)C3=O)c2)cc1C(F)(F)F (stereo not drawn) [Compound 126, 1-(3-((1-(2,6-dioxopiperidin-3-yl)-2,5-dioxo-2,5-dihydro-1H-pyrrol-3-yl)amino)phenethyl)-3-(4-methyl-3-(trifluoromethyl)phenyl)urea] | 1.762 | 1.603 | 1.420 | 0.059 | 0.033 | 0.047 | 0.177 | 0.072 | 0.100 | – | – | –
Cc1cc(CNC(=O)NCc2cccc(NC3=CC(=O)N(C4CCC(=O)NC4=O)C3=O)c2)ccc1Cl (stereo not drawn) [Compound 82, 1-(4-chloro-3-methylbenzyl)-3-(3-((1-(2,6-dioxopiperidin-3-yl)-2,5-dioxo-2,5-dihydro-1H-pyrrol-3-yl)amino)benzyl)urea] | 0.999 | 0.975 | 0.838 | 0.158 | 0.220 | 0.293 | 0.085 | 0.085 | 0.069 | – | – | –
Cc1ccc(NC(=O)CC(C)c2cccc(NC3=CC(=O)N(C4CCC(=O)NC4=O)C3=O)c2)cc1Cl (stereo not drawn) [Compound 137] | 1.665 | 1.677 | 1.665 | 0.023 | 0.009 | 0.011 | – | – | – | – | – | –
O=C1CCC(N2C(=O)C=C(Nc3cccc(CCC(=O)Nc4ccc(C(F)(F)F)c(Cl)c4)c3)C2=O)C(=O)N1 (stereo not drawn) [Compound 129, N-(3-chloro-4-(trifluoromethyl)phenyl)-3-(3-((1-(2,6-dioxopiperidin-3-yl)-2,5-dioxo-2,5-dihydro-1H-pyrrol-3-yl)amino)phenyl)propanamide] | 1.626 | 1.551 | 1.583 | 0.063 | 0.013 | 0.027 | – | – | – | – | – | –
CC(CC(=O)Nc1cccc(C(F)(F)F)c1)c1cccc(NC2=CC(=O)N(C3CCC(=O)NC3=O)C2=O)c1 (stereo not drawn) [Compound 140, 3-(3-((1-(2,6-dioxopiperidin-3-yl)-2,5-dioxo-2,5-dihydro-1H-pyrrol-3-yl)amino)phenyl)-N-(3-(trifluoromethyl)phenyl)butanamide] | 2.291 | 1.72 | 1.626 | 0.174 | 0.017 | 0.013 | – | – | – | – | – | –
